This test has as its system 885512-296-R-J2-PDC complex spheroid growth, % test/control. The experiment in a line: Anticancer human tumor 885512-296-R-J2-PDC patient-derived breast carcinoma cell line growth inhibition [AhR]. The conditions noted are these: for viability, T/C: stronger effect = lower value. An excerpt: Multicellular complex tumor spheroid response to aryl hydrocarbon receptor antagonists in combination with a variety of drugs and investigational agents in selected tumor cell lines
The current study was undertaken to assess response to aryl hydrocarbon receptor antagonists in combination with standard-of-care drugs and investigational agents in solid tumor complex spheroid models. Complex spheroids include a stromal component modeled by human endothelial cells (HUVEC) and fibroblasts modeled by human mesenchymal stem cells (MSCs). The concentration ranges selected for each drug and investigational agent were based upon clinically achievable concentrations if the clinical Cmax of the agent was known.
Compounds. The drugs and investigational agents: BAY 2416964 (NSC825713), GNF351 (NSC835774), CH-223191 (NSC835775), CPI-455 (NSC825282), aza-TdCyd (NSC777586), decitabine (NSC127716), belinostat (NSC758774), entinostat (NSC756642), pevonedistat (NSC761192), tazemetostat (NSC777109), talazoparib (NSC765396), olaparib (NSC753686), selinexor (NSC780203), nedisertib (M3814, NSC802822), bortezomib (NSC756655), venetoclax (NSC766270), doxorubicin (NSC123127), elimusertib (BAY189344, NSC800525), ceralasertib (AZD6738, NSC777638), TAK-243 (NSC785004), alisertib (NSC759677), etoposide (NSC141540), topotecan (NSC609699), eribulin (NSC707389), gemcitabine (NSC613327), carboplatin (NSC241240), cisplatin (NSC119875), and SN-38 (NSC673596) were obtained from the National Cancer Institute (NCI) Developmental Therapeutics Program Chemical Repository (32). The FDA-approved anticancer drug set is available from the Developmental Therapeutics Program at https://dtp.cancer.gov/organization/dscb/obtaining/available plates.htm. […] The stock solutions were prepared in dimethyl sulfoxide (DMSO, Sigma-Aldrich, St. Louis, MO, cat. D2650), except for the platinum compounds which were prepared in saline (Quality Biological, Gaithersburg, MD, cat. 114-055-101), at 800-fold the tested concentration and stored at -70 degrees C prior to their use. All drugs and investigational agents were tested over a range starting from a high concentration at or near the clinical Cmax and decreasing in half-log increments. If the clinical Cmax for an agent had not been determined, the highest concentration tested was 10 microM (Table 1).
Cell Culture. All cells were maintained in an incubator at 37 degrees C and 5% CO2 with 95% humidity. The PDC lines were cultured according to standard operating procedures established by the NCI PDMR (https://pdmr.cancer.gov). Briefly, all PDCs were thawed and cultured in Matrigel-coated flasks prepared with a working solution of 1X Ham's F-12 nutrient mix, without supplementation (Invitrogen, Waltham, MA, cat. 11765054), 100 U/mL penicillin-streptomycin (Invitrogen, cat. 15140122), and 2.5% Matrigel (Corning Inc., Corning, NY, cat. 354248) for the first three passages. All PDCs were cultured in complete DMEM/F-12 media containing advanced DMEM/F-12 (Invitrogen, cat. 12634028), 4.9% defined fetal bovine serum, heat inactivated (HyClone Laboratories Inc., Logan, UT, cat. SH30070.03HI), 389 ng/mL hydrocortisone (Sigma-Aldrich, cat. H4001), 9.7 ng/mL human EGF recombinant protein (Invitrogen, cat. PHG0313), 23.4 microg/mL adenine (Sigma-Aldrich, cat. A2786), 97.3 U/mL penicillin-streptomycin (Invitrogen, cat. 15140122), 1.9 mM L-glutamine (Invitrogen, cat. 25030081), and 9.7 microM Y-27632 dihydrochloride (Tocris Bioscience, Bristol, United Kingdom, cat. 1254). The PDCs were cultured in complete DMEM/F12 media without 10 microM Y-27632 dihydrochloride for at least two passages prior to the screen. The established cell lines NCI-H1341 and […] were cultured in DMEM/F-12, HEPES (Invitrogen, cat. 11330032), 5% defined fetal bovine serum (HyClone Laboratories Inc., cat. SH30070.03), ITS premix universal culture supplement [insulin (5 microg/mL), transferrin (5 microg/mL), and selenious acid (5 ng/mL)] […]

Structures are written as SMILES. Where “and” joins values, the source holds several entries; their conditions need not be identical. Identical values can stand only once. Where only a bound is given, the exact number is not on record here.

By viability, T/C is commonly meant the result in the treated group divided by that in the control group, in per cent. The term IC50 denotes the concentration that inhibits the measured activity by half.
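Further: spheroids exposed to compounds for seven days.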

As to `CC(C)c1c(-c2ccccc2)nc2c(C#N)c[nH]n2c1=O`, the viability, T/C is 93.1% and 105% and 113% (compound 0.0316 µM); 103% and 96.8% and 99.5% (compound 0.1 µM); 107% and 97.7% and 89% (compound 0.316 µM); 95.2% and 98.4% and 113% (compound 1 µM); 96.8% and 100% (2×) (compound 3.16 µM); 90.8% and 92% and 95.9% (compound 10 µM). Further, the IC50 (curve of compound) was more than 10 µM.
Take `CC(CO)NC(=O)c1cc(-c2ccc(Cl)cc2)nn(-c2cnn(C)c2)c1=O` (stereo not drawn): the viability, T/C (compound 0.316 µM) is 96.5% [middle of 21 runs]; the viability, T/C (compound 1 µM) was 98.8% [middle of 21 runs]; the viability, T/C (compound 10 µM) is 93.9% [middle of 19 runs]. Further, for the setting “compound alone, run of 08/08/2022”, the IC50 is more than 10 µM.
Regarding `CC1(C)CCC(CN2CCN(c3ccc(C(=O)NS(=O)(=O)c4ccc(NCC5CCOCC5)c([N+](=O)[O-])c4)c(Oc4cnc5[nH]ccc5c4)c3)CC2)=C(c2ccc(Cl)cc2)C1`, the viability, T/C runs as follows: (compound 0.0316 µM) 110% and 95.6% and 109%; (compound 0.1 µM) 109% and 91.1% and 99.6%; (compound 0.316 µM) 91.2% and 87.2% and 101%; (compound 1 µM) 94.4% and 79.7% and 98%; (compound 3.16 µM) 59.5% and 62.4% and 71.5%; (compound 10 µM) 24.6% and 16.2% and 41.4%. Also, the IC50 (curve of compound) is 4.59 µM and 4.22 µM and 7.2 µM.
Take `CC1COCCN1c1cc(C2(S(C)(=N)=O)CC2)nc(-c2ccnc3[nH]ccc23)n1` (stereo not drawn): the viability, T/C runs as follows: (compound 0.0316 µM) 103% and 100% and 97%; (compound 0.1 µM) 107% and 96.4% and 98.6%; (compound 0.316 µM) 101% and 104% and 91.9%; (compound 1 µM) 86.5% and 73.7% and 82.7%; (compound 3.16 µM) 31.6% and 18.2% and 17.2%; (compound 10 µM) 5.26% and 5.01% and 5.03%. Under “curve of compound”, the IC50 is 2.15 µM and 1.64 µM and 1.78 µM.
Take `COc1cc(Nc2ncc3c(n2)-c2ccc(Cl)cc2C(c2c(F)cccc2OC)=NC3)ccc1C(=O)O`: the viability, T/C (compound 0.0316 µM) was 53.5% and 54% and 51.9%; the viability, T/C (compound 0.1 µM) is 43.2% and 52% and 43.9%; the viability, T/C (compound 0.316 µM) was 48.8% and 56.9% and 53%; the viability, T/C (compound 1 µM) was 42.7% and 45% and 41.8%; the viability, T/C (compound 3.16 µM) is 38.3% and 53.3% and 41.6%; the viability, T/C (compound 10 µM) is 37% (2×) and 39.3%.
With `COc1ccc([C@@H](O)c2cc(-c3ncnc4cc(N5CCOCC5)ccc34)c(F)cc2Cl)nn1`, the viability, T/C is 94.6% and 87.4% and 102% (compound 0.0316 µM); 106% and 92.4% and 99.4% (compound 0.1 µM); 89.7% and 96.4% and 93.8% (compound 0.316 µM); 92.1% and 84% and 75.6% (compound 1 µM); 72.1% and 75.7% and 68.1% (compound 3.16 µM); 46% and 46.8% and 45.7% (compound 10 µM). For the same compound, under “curve of compound”, the half-inhibitory concentration (IC50) was 8.49 µM and 8.77 µM and 8.08 µM.
In the case of `Cc1ccccc1N=Nc1ccc(NC(=O)c2ccnn2C)c(C)c1`, the viability, T/C (compound 10 µM) is 53.1% [middle of 21 runs].
For `Cc1cncc(-c2nc(NCCc3c[nH]c4ccccc34)c3ncn(C(C)C)c3n2)c1`, the viability, T/C (compound 0.1 µM) was 105% [middle of 20 runs]; the viability, T/C (compound 3.16 µM) is 60% [middle of 20 runs]; the viability, T/C (compound 10 µM) is 19.6% [middle of 20 runs]. Moreover, the IC50 (compound alone, run of 08/16/2022) was 4.14 µM [middle of 24 runs].
Take `NS(=O)(=O)OCC1CC(n2ccc3c(NC4CCc5ccccc54)ncnc32)CC1O` (stereo not drawn): the viability, T/C is 87% and 90.8% and 96.4% (compound 0.0316 µM); 45.5% and 46.1% and 46.9% (compound 0.1 µM); 13.6% and 12.9% and 16% (compound 0.316 µM); 6.2% and 6.25% and 7.3% (compound 1 µM); 5.6% and 5% and 5.76% (compound 3.16 µM); 4.67% and 3.65% and 5.16% (compound 10 µM). In addition, the IC50 (curve of compound) is 0.0884 µM and 0.0903 µM and 0.093 µM.
Turning to `Nc1ccccc1NC(=O)c1ccc(CNC(=O)OCc2cccnc2)cc1`, the viability, T/C is 79.7% and 97% and 82.8% (compound 0.0316 µM); 86.1% and 81.5% and 74.1% (compound 0.1 µM); 67.5% and 63.9% and 58.3% (compound 0.316 µM); 48.1% (2×) and 46.7% (compound 1 µM); 25.6% and 24.4% and 32.2% (compound 3.16 µM); 10.4% and 10.3% (2×) (compound 10 µM). Also, where the note is “curve of compound”, the IC50 was 0.92 µM and 0.758 µM and 0.747 µM.
Turning to `Nc1ccn(C2OC(CO)C(O)C2(F)F)c(=O)n1` (stereo not drawn), the viability, T/C reads like this: (compound 0.0316 µM) 3% and 2.24% and 2.66%; (compound 0.1 µM) 3.22% and 2.41% and 2.65%; (compound 0.316 µM) 3.38% and 3.96% and 3.68%; (compound 1 µM) 3.04% and 4.06% and 3.38%; (compound 3.16 µM) 3.46% and 3.77% and 3.42%; (compound 10 µM) 3.08% and 3.9% and 2.46%. Besides, the IC50 (curve of compound) was less than 0.0316 µM.
Regarding `O=C(C=Cc1cccc(S(=O)(=O)Nc2ccccc2)c1)NO`, the viability, T/C (compound 0.0316 µM) is 90.3% and 90% and 85.2%; the viability, T/C (compound 0.1 µM) was 86.3% and 84.5% and 83.5%; the viability, T/C (compound 0.316 µM) was 59.8% and 62.8% and 69.6%; the viability, T/C (compound 1 µM) is 45.6% and 39% and 44.7%; the viability, T/C (compound 3.16 µM) is 26.5% and 27.6% and 33.8%; the viability, T/C (compound 10 µM) is 10.4% and 6.72% and 10.9%. Besides, the IC50 (curve of compound) was 0.725 µM and 0.67 µM and 0.991 µM.
Regarding `O=C(c1cc(Cc2n[nH]c(=O)c3ccccc23)ccc1F)N1CCN(C(=O)C2CC2)CC1`, the viability, T/C is, setting by setting: (compound 0.0316 µM) 101% and 131% and 106%; (compound 0.1 µM) 109% and 125% and 105%; (compound 0.316 µM) 133% and 134% and 148%; (compound 1 µM) 141% and 121% and 151%; (compound 3.16 µM) 113% and 81.3% and 93.8%; (compound 10 µM) 34.5% and 20.2% and 30.2%. The IC50 (curve of compound) is 8.01 µM and 5.7 µM and 6.98 µM.

Values taken from PubChem BioAssay AID1919006 (Molecular Pharmacology Branch, DTP, NCI, 2023).
